Source: publication PMC10447463, “Data-mining unveils structure–property–activity correlation of viral infectivity enhancing self-assembling peptides” (Nature Communications, 2023)

tested on: HIV-1 infection of TZM-bl cells; test: HIV-1 infectivity enhancement assay, β-galactosidase luminescence; type: cell-based; conditions: input.xlsx of the Pattern-Analysis script; infectivity relative to EF-C (peptide 59 = 1.00)

Substance | infectivity
CEIEIQINM [compound 134] | 0.0651
CKAKAQA [compound 137] | 0.03
QCKFKFQFNM [compound 26] | 0.51
KIKIQINMWWQ [compound 156] | 3.21
PPFHPPPFHP [compound 38] | 0.0177
HGEHGEHGE [compound 54] | 0.019
RGEKIKIQINM [compound 33] | 0.24
KNERIKNERI [compound 46] | 0.013
HHHHKIKIKIKIYYYY [compound 144] | 0.68
KIKIKIKIWWWW [compound 129] | 0.59
CKFKFQFNM [compound 5] | 1.24
CRFRVPF [compound 55] | 0.02
CKAKAQANMWQ [compound 10] | 0.0437
CKFKFQFNMW [compound 91] | 0.96
NMWQKIKQII [compound 71] | 0.0253
RGDCKIKIQINM [compound 142] | 0.24
RPRGLLLGNLR [compound 36] | 0.05
RGDKIKIQINMC [compound 111] | 1.07
KFKFQFFF [compound 114] | 0.40
KAKAQANM [compound 136] | 0.009
KIKIKIKI [compound 130] | 0.0326
KIKIQINMAQ [compound 83] | 0.21

Substance | infectivity
KIKIKIKIWW [compound 139] | 0.37
CEIEIQINMWQ [compound 133] | 0.22
KIKIQII [compound 113] | 0.0187
KIKIQINMWQRGD [compound 161] | 0.0121
FDPFDPFDP [compound 40] | 0.0234
ILKNLSRSRKIKIQINMWQ [compound 154] | 0.32
KIKIQIMWNQ [compound 159] | 0.56
CKIKIQIRGD [compound 109] | 0.33
CEFEFQFNMWQ [compound 131] | 0.14
KIKIQIRGD [compound 102] | 0.02
QCKIKIQINMWQ [compound 60] | 1.04
HHHHKAKAKAKAYYYY [compound 124] | 0.0131
KFKQFFINMWQ [compound 158] | 0.92
KIKIQIII [compound 122] | 0.35
KKFQKKFQ [compound 37] | 0.0285
CKIKQII [compound 100] | 0.04
CRFRFQF [compound 28] | 0.34
HHHHKIKIQINMYYYY [compound 138] | 1.11
CEIEIQI [compound 2] | 0.0279
HRRHFRHKITKKK [compound 45] | 0.0136
CKFKQFFNMWQ [compound 15] | 0.61
MKIKIQINM [compound 141] | 0.27

Substance | infectivity
EIKIQINM [compound 149] | 0.10
KIKIQIMQWN [compound 160] | 0.72
QCKAKAQANMWQ [compound 19] | 0.07
KFKFQFNM [compound 8] | 0.47
SISISRRI [compound 44] | 0.0283
KIKQIIN [compound 74] | 0.04
KIKIQIW [compound 146] | 0.14
CKFKQFF [compound 17] | 0.00675
RGDCKFKFQF [compound 145] | 0.15
KAKQAANMWQ [compound 69] | 0.03
KFKFQFW [compound 147] | 0.16
QCKAKAQA [compound 21] | 0.0253
CSISIQINM [compound 135] | 0.20
KIKIQINMWQ [compound 61] | 0.30
CKIKQIINMWQ [compound 101] | 1.24
CSISIQI [compound 132] | 0.0559
QCKFKFQFNMWQ [compound 25] | 0.62
EIEIQINM [compound 155] | 0.0363
QCKIKQIINMWQ [compound 59] | 1.00
KVKVQVVV [compound 123] | 0.0351
QCKIKQIINM [compound 23] | 0.35
KAKAQANMWQ [compound 66] | 0.00715

Substance | infectivity
EFEFQF [compound 89] | 0.00327
KIKIQINMW [compound 75] | 2.16
KFKFQFF [compound 121] | 0.12
KIKIQIAMWQ [compound 85] | 0.39
HLHLPLL [compound 31] | 0.01
CETMYDKILKNLSRSR [compound 57] | 0.02
CHLHLQL [compound 56] | 0.10
QCKFKQFF [compound 14] | 0.0124
RGECKFKFQF [compound 32] | 0.33
KIKIQI [compound 79] | 0.07
KIKIQIN [compound 77] | 0.27
RGDKIRGDKI [compound 51] | 0.00748
QCKFKQFFNM [compound 13] | 0.43
QCKFKFQF [compound 27] | 0.77
KIKIKIKIYYYY [compound 86] | 1.38
QCKIKIQI [compound 22] | 0.11
CKIKQIIRGD [compound 110] | 0.05
ILKNLSRSRKIKIQIC [compound 128] | 0.34
MDQMDQMDQMDQMDQ [compound 39] | 0.00427
CEFEFQF [compound 90] | 0.00521
MKFKFQF [compound 58] | 0.0637
KVKVQVV [compound 119] | 0.00912

Substance | infectivity
CKWKWQW [compound 94] | 0.25
CKFKFQFW [compound 148] | 0.88
CKIKIQIII [compound 1] | 0.98
KLKLQLL [compound 120] | 0.00698
EIEIQINMWQ [compound 162] | 0.13
CKFQC [compound 48] | 0.0227
KFKFQFNMWQ [compound 67] | 0.76
RGDKIKIQINMWQ [compound 105] | 0.76
HGDKCHGDKC [compound 35] | 0.01
HHHHEIEIEIEI [compound 87] | 0.03
KIKIKIQI [compound 115] | 0.10
CKIKIQINMWQ [compound 96] | 0.70
KVKGVGK [compound 43] | 0.0259
FKFDKFKFDK [compound 42] | 0.0464
KLKQLL [compound 95] | 0.00739
MKFM [compound 49] | 0.0175
KAKAKAQA [compound 116] | 0.00871
KIEIQINM [compound 108] | 0.0348
NMWQKVGTPL [compound 70] | 0.0247
KIKIQINMWWWQ [compound 157] | 2.75
KNDKND [compound 52] | 0.0105
KIKIQIC [compound 125] | 0.61
